In data set [1] the test system is rice half seeds. Description: rice half-seed transient expression assay, GUS activity. The class given is cell-based. The note with it: rice half seeds transfected by particle bombardment, with vs without 10 μM ABA for 16 h. The protocol:
(§1) (A) Three copies of ABRC321 confer high ABA inducibility in a rice half-seed transient expression assay. Rice half seeds were transfected with plasmids shown in FIG. 1 by particle bombardment, and incubated with (+) or without (−) 10 μM ABA for 16 h, and GUS activity was analyzed. (B) Three copies of ABRC321 confer high ABA inducibility in leaves and roots in transgenic rice. Constructs shown in FIG. 1 were introduced into the rice genome. Leaves and roots of 10-day-old T2 seedlings of four transgenic lines were collected and incubated in water with (+) or without (−) 10 μM ABA for 16 h, and GUS activity was analyzed. Numbers above bars indicate fold induction of GUS activity by ABA. Error bars represent SD (n=3).
Two 56-bp complementary oligonucleotides, containing the CE3 and A2 elements from the HVA1 promoter and the CE1 element from the HVA22 promoter (Shen Q, Zhang P, & Ho T H (1996) Plant Cell 8(7):1107-1119) and restriction sites KpnI, XhoI and XbaI were synthesized, annealed, and designated as ABRC321 (FIG. 1A). ABRC321 was self-ligated in two or three copies in correct orientations. For expression of GUS under the control of ABRC321, 1-3 copies ABRC321 was inserted into the XbaI site in MP64, so that the ABRC321 was fused upstream of the barley Amy64 minimal promoter, generating constructs 1xABRC321-GUS, 2x-ABRC321-GUS and 3xABRC321-GUS (FIG. 1(B)). For expression of HVA1 under the control of 3xABRC321, GUS cDNA in construct 3xABRC321-GUS was replaced with HVA1 cDNA, generating construct 3xABRC321-HVA1 (FIG. 1(C)) (SEQ ID NO: 6).
In this study, we used a […] promoter, ABRC321, to express recombinant HVA1 (rHVA1) in plants. […] ABRC321 was generated by fusion of coupling element CE3 and ABRE2 (A2) from the HVA1 ABRC3 and coupling element CE1 from the HVA22 ABRC1 (Shen Q, Zhang P, & Ho T H (1996) Plant Cell 8(7):1107-1119). The reporter gene GUS was fused downstream of 1-3 tandem repeats of ABRC321 and the Amy64 minimal promoter.

Data set [2] has as its system PIN genes. Description: quantitative real-time RT-PCR of auxin transporter genes in roots. The class given is in vivo, rice. The conditions noted are these: Yoshida solution with or without 0.2 μM ABA for 14 days, root RNA. As for the experimental part:
Four-day-old seedlings of Tainung 67 (T) transgenic lines were germinated on MS medium for four days and transfer to full strength Yoshida solution with or without 0.2 μM ABA for 14 days. Total RNA was extracted from roots and subjected to quantitative real-time RT-PCR.
To determine whether the promotion of root growth by HVA1 in transgenic rice involves the auxin (IAA)-dependent pathway, the expression of various genes involved in auxin transport and signaling were determined. […] The rice PIN family is encoded by 12 genes, with expression of each being spatially and temporally regulated (Wang J R, et al. (2009) Mol Plant 2(4):823-831).
For orientation: Real-time PCR tracks product formation cycle by cycle.

In data set [3] the test system is Tainung 67 seedlings. The data set is described as follows: root growth of rice seedlings on half-strength MS medium containing ABA and/or NPA. The class given is in vivo, Oryza sativa L. cv Tainung 67. Set-up: lateral root morphology: dose or concentration left out as unconfirmed. From the text:
Three-day-old seedlings of Tainung 67 (T) transgenic lines were transferred to half-strength MS medium without sugar but containing ABA or sorbitol, and root morphology was examined. (A) Morphology of various branch roots.
Three-day-old seedlings of Tainung 67 (T) transgenic lines that containing seminal roots only were transferred to half-strength MS (½) medium without sugar but containing ABA and/or NPA for 11 days, and root morphology was examined. […] The dots indicate starting points of root growth after transferring to MS medium containing ABA and/or NPA.
Rice cultivars Oryza sativa L. cv Tainung 67 and Oryza sativa L. cv Kitaake were used for all experiments. Plasmid was introduced into Agrobacerium tumefaciens strain EHA101 and rice transformation was performed as described (Chen P-W, et al. (2002) J Biol Chem 277:13641-13649). Homozygous transgenic lines were used in all experiments. For observation of root growth, transgenic rice seeds were germinated on the surface of half-strength MS medium without sugar but with or without ABA. For hydroponic culture, Yoshida solution was used. Seedlings were normally grown in 28′C incubator with 12 hr daily light.
Rice branch roots could be classified into four types: seminal root, also called radical, the first root grows during germination; crown roots, roots emerge from the node of coleoptile; adventitious roots, roots differentiate from the nodes of main stem and tillers, lateral roots, roots branch from above three types of roots and can bear additional large or small lateral roots until the fifth order of branching. The number of each type of root was measured by simple counting. Root length was measured, number of roots was counted, and lateral root density was determined by dividing lateral root number with root length. Error bars represent SD (n=12). Significance levels: *P<0.05, **P<0.01, ***P<0.001.
In medium without any treatment, newly grown crown and lateral roots were more abundant in Tainung 67 transgenic lines than in WT (FIG. 12(A)). […] In the presence of NPA, growth of all types of roots was inhibited (FIG. 12(C)).

The test system of data set [4] is leaves and roots in transgenic rice. The data set is described as follows: GUS activity in leaves and roots of stably transformed transgenic rice. The conditions noted are these: 10-day-old T2 seedlings, 10 μM ABA for 16 h, compared among all constructs. It is filed as in vivo. The protocol:
as §1
All ABRC321:GUS constructs were also used for rice stable transformation.

[5] abbreviates: 0.2 μM ABA plus 1 μM NPA, 11 days.

For the molecule “1xABRC321: synthetic ABA-inducible promoter, one copy of ABRC321 (CE3, A2, CE1 elements) fused upstream of Amy64 minimal promoter and GUS (DNA GGTACCGCAACGCGTGTCCTCCCTACGTGGCGGCTCGAGATTGCCACCGGTCTAGA; synthetic promoter element in GUS reporter construct, further chemistry not given here)”, in data set [1], the “induction of GUS activity by ABA” value is listed as 19 fold.

For the molecule `CC1=CC(=O)CC(C)(C)[C@@]1(O)/C=C/C(C)=C\C(=O)O` [ABA, abscisic acid], in data set [2], the “expression of several PIN genes” value was “up-regulated”. Besides, the “root length and lateral root density” value in data set [3] (ABA concentration of 0.1 μM, 14 days) was “significantly increased”. For the same molecule, the root density entry in data set [3] (ABA concentrations higher than 0.5 M, 14 days) is given as “decreased”. The lateral root morphology result in data set [3] (ABA concentrations, 14 days) is “shorter and thicker”.

Turning to `O=C(O)c1ccccc1C(=O)Nc1cccc2ccccc12` [NPA, N-(1-naphthyl) phtalamic acid], in data set [3] (setting [5]), the “growth of crown roots and lateral roots” value is listed as “also inhibited”; the “growth of seminal roots” value was “continued to grow”. For the same molecule, the “growth of all types of roots” value in data set [3] (1 μM NPA only, 11 days, WT and transgenic lines) was “inhibited”.

B1: 3xABRC321: synthetic ABA-inducible promoter, three tandem copies of ABRC321 driving GUS (nucleic acid)
DNA: GGTACCGCAACGCGTGTCCTCCCTACGTGGCGGCTCGAGATTGCCACCGGGGTACCGCAACGCGTGTCCTCCCTACGTGGCGGCTCGAGATTGCCACCGGGGTACCGCAACGCGTGTCCTCCCTACGTGGCGGCTCGAGATTGCCACCGGTCTAGA
modifications: Synthetic prompter 3XABRC321
notes: synthetic ABA-inducible promoter, three tandem copies of ABRC321 driving GUS
For the molecule B1, the “ABA induction of GUS activity in leaves and roots” value in data set [4] is “most highly induced by ABA among all constructs”. Further, in data set [1], the “induction of GUS activity by ABA” value is listed as 33 fold.

B2: 2xABRC321: synthetic ABA-inducible promoter, two tandem copies of ABRC321 driving GUS (nucleic acid)
DNA: GGTACCGCAACGCGTGTCCTCCCTACGTGGCGGCTCGAGATTGCCACCGGGGTACCGCAACGCGTGTCCTCCCTACGTGGCGGCTCGAGATTGCCACCGGTCTAGA
modifications: synthetic promoter element in GUS reporter construct, further chemistry not given here
Turning to B2, the “induction of GUS activity by ABA” value in data set [1] is recorded as 20 fold.

Values taken from patent publication US10266838B2, “Methods for enhancing root growth of plants” (Academia Sinica, priority 2013, dated 2019).
